Results as given in patent publication US3939144A, “Manufacture of N-(benzenesulfonyl)-5-O-desosaminyl-erythromycilamine derivatives” (Pliva, Pharmaceutical and Chemical Works, priority 1974, dated 1976).
Converted amounts (≈) assume the structure as drawn.

Legend:
Format in all cases: cell-based
Conditions in all cases: compound alone
E.coli 7920 = assay: Preliminary bacteriological tests, MIC, E.coli 7920
E.coli 8141 = assay: Preliminary bacteriological tests, MIC, E.coli 8141
Strept.haem. = assay: Preliminary bacteriological tests, MIC, Strept.haem.

SMILES | MIC (E.coli 7920) | MIC (E.coli 8141) | MIC (Strept.haem.)
CCC1OC(=O)C(C)C(O)C(C)C(OC2OC(C)CC(N(C)C)C2O)C(C)(O)CC(C)C(NS(=O)(=O)c2ccc(N)cc2)C(C)C(O)C1(C)O (stereo not drawn) [DEASNH2, N-(4-amino-benzenesulfonyl)-5-0-desosaminyl-erythromycilamine] | 125 µg/mL (≈ 171 µM) | 125 µg/mL (≈ 171 µM) | 62.2 µg/mL (≈ 85 µM)
CCC1OC(=O)C(C)C(O)C(C)C(OC2OC(C)CC(N(C)C)C2O)C(C)(O)CC(C)C(NS(=O)(=O)c2ccc(C)cc2)C(C)C(O)C1(C)O (stereo not drawn) [DEAST, N-(4-methyl-benzenesulfonyl)-5 -O-desosaminyl-erythromycilamine] | 125 µg/mL (≈ 171 µM) | 125 µg/mL (≈ 171 µM) | 62.2 µg/mL (≈ 85.1 µM)
CCC1OC(=O)C(C)C(O)C(C)C(OC2OC(C)CC(N(C)C)C2O)C(C)(O)CC(C)C(NS(=O)(=O)c2ccc(Br)cc2)C(C)C(O)C1(C)O (stereo not drawn) [DEASBr, N-(4-bromo-benzenesulfonyl)-5 -O-desosaminyl-erythromycilamine] | 250 µg/mL (≈ 314 µM) | 500 µg/mL (≈ 628 µM) | 62.2 µg/mL (≈ 78.2 µM)
CCC1OC(=O)C(C)C(O)C(C)C(OC2OC(C)CC(N(C)C)C2O)C(C)(O)CC(C)C(NS(=O)(=O)c2ccc(Cl)cc2)C(C)C(O)C1(C)O (stereo not drawn) [DEASCl, N-(4-chloro-benzenesulfonyl)-5 -O-desosaminyl-erythromycilamine] | 250 µg/mL (≈ 333 µM) | 250 µg/mL (≈ 333 µM) | 125 µg/mL (≈ 166 µM)
